The target in data set [1] is T1, hG6PD (Homo sapiens, UniProt P11413).
T1 construct: made in house
The experiment in a line: hG6PD enzyme inhibition assay. The class given is biochemical. The settings on record: for IC50 on hG6PD relative to plasmodial enzymes (selectivity): compared with PfGluPho and PvG6PD. Here is the method:
(§1) To identify potential inhibitors of PvG6PD, compounds with already known effects on PfGluPho (ellagic acid and derivatives, ML304) were tested. Additionally, several compound libraries of the Helmholtz Center for Infection Research, Brunswick, were screened against PfGluPho using the high-throughput-compatible assay systems described in Preuss et al.. […] Based on structure-activity relationship studies, a set of new potential G6PD inhibitors (Fig. 8) was then synthesized and assessed. First, the IC50 values of the compounds were determined, followed by mechanistic characterization of the mode of action. To test for selectivity of the compounds, the IC50 values of the compounds on PvG6PD, PfGluPho, and hG6PD were determined in parallel.
(§2) All measurements were performed in 96-well plates, half area (Greiner Bio-One, Frickenhausen, Germany) using a Tecan Infinite M200 plate reader (Maennedorf, Switzerland). The compounds were dissolved in 100% DMSO and afterwards diluted in assay buffer to the required concentrations. Different compound concentrations were added to a mixture of enzyme and NADP^+ in assay buffer. Concentrations of substrates differed depending on the enzyme; an overview is given in the Additional file 4. The reaction was started by adding G6P, and the increase of NADPH was monitored by measuring the absorbance at 340 nm. To increase the sensitivity of the assay, some measurements were reproduced, detecting the fluorescence of NADPH at ex340/em460. […] A negative control containing no compound was defined as 0% inhibition; a positive control lacking the substrate G6P was defined as 100% inhibition. For evaluations using GraphPad Prism and Microsoft Excel, only a linear increase in absorbance/fluorescence was considered. For the mechanistic characterization of the compounds, either NADP^+ or G6P were titrated at different compound concentrations around the IC50, while keeping the second substrate in saturation. The initial slope was plotted as Michaelis–Menten curves and Lineweaver–Burk plots using GraphPad Prism; KM values and Vmax were calculated with GraphPad Prism software.

Data set [2] in a line: Stability of compounds in enzyme assay buffer. The class given is physicochemical. The settings on record: 100 mM Tris–HCl pH 8.0 assay buffer, DMSO stock.
Another data set has as its target PvG6PD (Plasmodium vivax, UniProt A5K3M1). Briefly: PvG6PD enzyme inhibition assay (NADPH formation, absorbance 340 nm / fluorescence). The class given is biochemical. The settings on record: for IC50 on PvG6PD: ellagic acid and derivatives. The procedure:
The G6PD activity of PfGluPho variants was measured spectrophotometrically as described for the wt enzyme. Kinetic characterization of PvG6PD was performed using the same assay system at an Evolution 300 spectrophotometer (Thermo Scientific, Dreieich, Germany). In brief, the initial reduction of NADP^+ to NADPH by PvG6PD was monitored by measuring the absorbance at 340 nm. The 500 µL reaction mixture contained 200 µM NADP^+ and varying concentrations of PvG6PD in an assay buffer of 100 mM Tris–HCl, pH 8.0, 10 mM MgCl2, and 0.5 mM EDTA at 25 °C. The reaction was started by adding 800 µM G6P. The KM for NADP^+ was determined by titrating NADP^+ from 2 to 400 µM at 800 µM G6P; the KM for G6P was measured accordingly by titrating G6P from 2 to 1200 µM at 200 µM NADP^+. KM values were calculated using GraphPad Prism. Since the KM for G6P was considerably higher than the value measured for PfGluPho [14], a concentration of 800 µM G6P was defined as substrate saturation for PvG6PD.
as §1, §2

For data set [3], the target named is T2, PfGluPho (Plasmodium falciparum, UniProt Q8IKU0).
T2 construct: made in house
T2 sequence (Q8IKU0 1-910): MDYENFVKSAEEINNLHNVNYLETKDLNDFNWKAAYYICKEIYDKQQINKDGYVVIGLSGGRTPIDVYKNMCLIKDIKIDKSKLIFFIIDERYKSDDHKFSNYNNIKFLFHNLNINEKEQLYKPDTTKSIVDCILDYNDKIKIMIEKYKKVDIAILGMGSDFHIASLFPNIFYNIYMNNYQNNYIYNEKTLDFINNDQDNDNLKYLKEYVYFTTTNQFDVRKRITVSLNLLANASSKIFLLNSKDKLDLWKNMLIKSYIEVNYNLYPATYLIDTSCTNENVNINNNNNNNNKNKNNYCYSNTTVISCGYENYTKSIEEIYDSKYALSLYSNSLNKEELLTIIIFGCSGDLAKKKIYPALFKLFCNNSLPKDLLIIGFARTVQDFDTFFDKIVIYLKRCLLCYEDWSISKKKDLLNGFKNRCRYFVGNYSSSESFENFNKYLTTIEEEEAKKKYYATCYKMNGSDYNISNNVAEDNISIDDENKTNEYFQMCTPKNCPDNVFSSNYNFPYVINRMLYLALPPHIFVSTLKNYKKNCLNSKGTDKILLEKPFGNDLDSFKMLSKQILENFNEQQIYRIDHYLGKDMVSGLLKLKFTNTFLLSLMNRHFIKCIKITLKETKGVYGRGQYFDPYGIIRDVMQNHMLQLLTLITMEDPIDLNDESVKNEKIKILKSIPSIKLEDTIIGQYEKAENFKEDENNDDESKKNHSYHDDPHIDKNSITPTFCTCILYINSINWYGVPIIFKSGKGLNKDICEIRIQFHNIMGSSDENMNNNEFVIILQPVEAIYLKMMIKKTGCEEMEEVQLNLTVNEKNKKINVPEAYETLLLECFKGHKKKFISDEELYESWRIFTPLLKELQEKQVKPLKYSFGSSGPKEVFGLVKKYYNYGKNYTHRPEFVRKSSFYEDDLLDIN
The experiment in a line: PfGluPho G6PD activity inhibition assay. Format: biochemical. The procedure:
as §1, §2

For data set [4], the target named is T2, PfGluPho. The settings on record: ML276; read-out: IC50 against PfGluPho; cited from earlier work.
The target in data set [5] is T1, hG6PD. Conditions: ML276; read-out: IC50 against hG6PD; cited from earlier work.
Data set [6] concerns the molecule itself. Briefly: SEC; size exclusion chromatography of purified PfGluPho mutants under reducing conditions. In general terms: Size exclusion chromatography separates by hydrodynamic size, large species first.
The mark [7] stands for this setting: mean ± SD, only one enzyme batch, read-out: IC50 on hG6PD.
Setting [8] is: mean ± SD, at least two independent determinations, different enzyme batches, read-out: IC50 on PfGluPho.

We go through 17 molecules from paper PMC6346587, “Glucose 6-phosphate dehydrogenase 6-phosphogluconolactonase: characterization of the Plasmodium vivax enzyme and inhibitor studies” (Malaria Journal, 2019).

Substitutions are numbered along the chain they refer to. In names and notes the source's numbering stands. Where two headings read alike, the source gives them in different places. Some results are limits rather than exact numbers.

T1 sequence (P11413 whole entry): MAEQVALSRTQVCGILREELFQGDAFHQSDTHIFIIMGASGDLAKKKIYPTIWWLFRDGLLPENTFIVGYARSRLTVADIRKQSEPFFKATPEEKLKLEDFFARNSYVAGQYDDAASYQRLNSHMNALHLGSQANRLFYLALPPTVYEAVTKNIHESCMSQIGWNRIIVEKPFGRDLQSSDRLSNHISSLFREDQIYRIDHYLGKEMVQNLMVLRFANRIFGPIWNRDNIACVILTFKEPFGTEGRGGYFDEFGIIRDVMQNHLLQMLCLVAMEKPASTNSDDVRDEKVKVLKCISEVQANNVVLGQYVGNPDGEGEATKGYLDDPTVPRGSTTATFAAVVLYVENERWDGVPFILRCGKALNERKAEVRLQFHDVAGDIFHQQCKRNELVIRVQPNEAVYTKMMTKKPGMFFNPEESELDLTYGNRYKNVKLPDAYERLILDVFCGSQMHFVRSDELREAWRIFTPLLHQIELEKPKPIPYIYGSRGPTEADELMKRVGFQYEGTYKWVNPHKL
PvG6PD, sequence (A5K3M1 entry or part of it): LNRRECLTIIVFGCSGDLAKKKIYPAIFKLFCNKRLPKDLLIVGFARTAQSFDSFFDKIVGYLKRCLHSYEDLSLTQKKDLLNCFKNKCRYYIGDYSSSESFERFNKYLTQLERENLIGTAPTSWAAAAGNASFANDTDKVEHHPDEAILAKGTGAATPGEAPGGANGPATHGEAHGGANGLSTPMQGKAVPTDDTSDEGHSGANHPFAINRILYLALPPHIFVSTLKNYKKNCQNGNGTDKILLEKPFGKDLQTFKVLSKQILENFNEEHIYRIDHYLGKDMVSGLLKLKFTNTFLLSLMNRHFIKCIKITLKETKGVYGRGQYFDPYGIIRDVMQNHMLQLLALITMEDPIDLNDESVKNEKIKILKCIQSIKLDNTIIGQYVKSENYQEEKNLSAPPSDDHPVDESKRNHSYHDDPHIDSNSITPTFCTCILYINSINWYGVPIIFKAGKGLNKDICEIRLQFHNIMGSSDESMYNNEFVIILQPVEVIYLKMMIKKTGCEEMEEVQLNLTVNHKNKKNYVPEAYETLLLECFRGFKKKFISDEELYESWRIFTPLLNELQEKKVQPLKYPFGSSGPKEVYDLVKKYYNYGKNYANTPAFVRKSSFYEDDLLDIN

As a reminder, the IC50 is the concentration needed to halve the response being measured. `N#CC(Br)c1ncccn1` (stereo not drawn) [2 (vz1731)]: the IC50 worked out at 91.7 ± 35 µM at hG6PD [1] (setting [7]), 2.1 ± 0.1 µM at PvG6PD and 11.7 ± 9.9 µM at PfGluPho [3] (setting [8]). In addition, the “Stability in the assay buffer / of dissolved compound” value in data set [2] is on record as “only active when the powder was freshly dissolved”.
As to `N#CC(Br)c1ncccc1Cl` (stereo not drawn) [4 (vz1732)], the “IC50 on hG6PD relative to plasmodial enzymes (selectivity)” value on hG6PD [1] is given as “one to two orders of magnitude higher”. The values for the IC50 on hG6PD [1] (setting [7]), against PvG6PD and at PfGluPho [3] (setting [8]) were 34.7 ± 21 µM, 0.2 µM and 0.9 ± 0.2 µM, respectively. The “Stability in the assay buffer / of dissolved compound” value in data set [2] is “only active when the powder was freshly dissolved”. For the same molecule, the “Type of inhibition of PfGluPho against G6P and NADP+” value at PfGluPho [3] (both substrate G6P and coenzyme NADP+) is given as “non-competitively”.
As to `ClC=C(n1nnc2ccccc21)n1nnc2ccccc21` [8 (vz0882)], in data set [2], the “Stability in the assay buffer / of dissolved compound” value is listed as “less stable”. The IC50 on PvG6PD came out at 12.8 ± 7.8 µM; on PfGluPho [3] (setting [8]), 18.1 ± 10.4 µM.
As to `O=C(O)C(Cl)(C=C(Cl)Cl)[N+](=O)[O-]` (stereo not drawn) [10 (vz1204)], the IC50 at hG6PD [1] (setting [7]) was above 100 µM; on PvG6PD, 23.5 ± 3.7 µM.
Consider `O=CC(Cl)=C(I)I` [13 (vz0288)], for which the IC50 is above 100 µM on hG6PD [1] (setting [7]); 23.3 ± 7.8 µM on PvG6PD (mean ± SD, at least two independent determinations, different enzyme batches, read-out: IC50 on PvG6PD); 29.6 ± 23.2 µM at PfGluPho [3] (setting [8]).
As for `O=C(C(=C1N(Cc2ccc(Cl)nc2)CCN1Cc1ccc(Cl)nc1)[N+](=O)[O-])C(Cl)(Cl)[N+](=O)[O-]` [18 (vz0909)], the IC50 on hG6PD [1] was 26 ± 1.8 µM; at PvG6PD, 9.1 ± 2.8 µM; against PfGluPho [3], 23.6 ± 14.3 µM. Further, in data set [2], the “Stability in the assay buffer / of dissolved compound” value is on record as “less stable”.
The corresponding values for `O=C(/C(=C1\N(Cc2ccc(Cl)nc2)CCN1Cc1cnc(Cl)s1)[N+](=O)[O-])C(Cl)(Cl)[N+](=O)[O-]` [19 (vz0914)] are 29.6 ± 5 µM, 5.6 ± 0.6 µM, 8.4 ± 8.4 µM and “less stable”.
Take `O=[N+]([O-])C(C(Cl)=C(Cl)Cl)=C1N(c2ccccc2)CCN1c1ccccc1` [20 (vz0005)]: the IC50 on hG6PD [1] (setting [7]), against PvG6PD and on PfGluPho [3] (setting [8]) was above 100 µM throughout.
In the case of `C=C[S+]([O-])c1sc(Cl)c(N2CCN(c3c(Cl)sc([S+]([O-])C=C)c3[N+](=O)[O-])CC2)c1[N+](=O)[O-]` (stereo not drawn) [21 (vz0527)], the 50% inhibitory concentration (IC50) against hG6PD [1] is 8.3 ± 2.7 µM; against PvG6PD it was 0.2 ± 0.1 µM; on PfGluPho [3] it was 1.7 ± 0.3 µM. Moreover, on hG6PD [1], the “IC50 on hG6PD relative to plasmodial enzymes (selectivity)” value is given as “one to two orders of magnitude higher”. Moreover, the “Stability in the assay buffer / of dissolved compound” value in data set [2] is “only active when the powder was freshly dissolved”.
Consider `O=c1oc2c(O)c(O)c(O)c3c(=O)oc4c(O)c(O)c(O)c1c4c23` [CEA, coruleoellagic acid], for which, on PvG6PD, half-maximal inhibition (IC50) required 0.0444 ± 0.0019 µM and the “IC50 on PvG6PD” value is given as “lower nanomolar range”.
The corresponding values for `O=c1oc2c(O)c(O)c(O)c3c(=O)oc4c(O)c(O)cc1c4c23` [FEA, flavellagic acid] are 0.0372 ± 0.0058 µM and “lower nanomolar range”.
As to `CCN1CCC[C@@H]1CNC(=O)c1ccc2c(c1)NC(=O)/C(=C/c1ccccc1F)S2` [ML276, (R, Z)-N-((1-ethylpyrrolidin-2-yl)methyl)-2-(2-fluorobenzylidene)-3-oxo-3,4-dihydro-2H-benzo[b][1,4]thiazine-6-carboxamide], the values for the IC50 at PfGluPho [4] and at hG6PD [5] were 0.89 µM and above 80 µM, respectively.

B1: PfGluPho S315Y (enzyme)
chain: T2 sequence (Q8IKU0 1-910) with S315Y
notes: source: E. coli, purified (size exclusion chromatography under reducing conditions); produced as described previously [14]
Usually stoichiometry N stands for the number of molecules, sites or subunits per partner or assembly. With B1, the “stoichiometry N” value in data set [6] came to 4.

B2: PfGluPho F507L (enzyme)
chain: T2 sequence (Q8IKU0 1-910) with F507L
notes: as for B1
With B2, the “stoichiometry N” value in data set [6] was 4.

B3: PfGluPho S900E (phosphomimetic mutant) (enzyme)
chain: T2 sequence (Q8IKU0 1-910) with S900E
notes: as for B1
With B3, in data set [6], the “stoichiometry N” value came out at 4.

B4: PfGluPho L395F (enzyme)
chain: T2 sequence (Q8IKU0 1-910) with L395F
notes: as for B1
With B4, the “stoichiometry N” value in data set [6] was found to be 4.

B5: PfGluPho S899E (phosphomimetic mutant) (enzyme)
chain: T2 sequence (Q8IKU0 1-910) with S899E
notes: as for B1
Take B5: the “stoichiometry N” value in data set [6] worked out at 4.
